Measurements as given in publication PMC12018195, “A conserved phosphorylation mechanism for regulating the interaction between the CMG replicative helicase and its forked DNA substrate” (The Journal of Biological Chemistry, 2025).

Legend:
Test in all cases: radiometric kinase assay, SDS-PAGE
Type in all cases: biochemical
human (Hs) Chk1 = biological target: T1, human (Hs) Chk1 (Homo sapiens, UniProt O14757); conditions: phosphate donor, 300 μM ATP spiked with labelled compound; acceptor MCM2-7 / CMG / histone H1; 10 mM Mg acetate, pH 7.6, 30 °C
T1 construct: gene CHEK1
T1 sequence (O14757 1-476): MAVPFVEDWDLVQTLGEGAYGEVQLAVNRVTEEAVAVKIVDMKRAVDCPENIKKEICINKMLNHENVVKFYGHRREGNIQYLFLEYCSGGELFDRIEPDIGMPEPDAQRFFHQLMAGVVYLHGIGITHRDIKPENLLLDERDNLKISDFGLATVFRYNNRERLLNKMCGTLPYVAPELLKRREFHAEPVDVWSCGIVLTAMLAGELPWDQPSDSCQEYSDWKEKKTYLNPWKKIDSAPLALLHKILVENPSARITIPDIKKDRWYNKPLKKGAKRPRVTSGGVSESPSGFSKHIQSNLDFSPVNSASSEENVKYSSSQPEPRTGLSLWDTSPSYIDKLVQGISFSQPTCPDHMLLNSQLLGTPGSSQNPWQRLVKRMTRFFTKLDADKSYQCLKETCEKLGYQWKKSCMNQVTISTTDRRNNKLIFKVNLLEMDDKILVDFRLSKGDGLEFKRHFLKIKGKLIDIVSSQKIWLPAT

Drosophila (Dm) Chk1 = biological target: T2, Drosophila (Dm) Chk1 (Drosophila melanogaster, UniProt O61661); conditions: phosphate donor, 300 μM ATP spiked with labelled compound; acceptor MCM2-7 / CMG / histone H1; 10 mM Mg acetate, pH 7.6, 30 °C
T2 construct: gene grp
T2 sequence (O61661 1-512): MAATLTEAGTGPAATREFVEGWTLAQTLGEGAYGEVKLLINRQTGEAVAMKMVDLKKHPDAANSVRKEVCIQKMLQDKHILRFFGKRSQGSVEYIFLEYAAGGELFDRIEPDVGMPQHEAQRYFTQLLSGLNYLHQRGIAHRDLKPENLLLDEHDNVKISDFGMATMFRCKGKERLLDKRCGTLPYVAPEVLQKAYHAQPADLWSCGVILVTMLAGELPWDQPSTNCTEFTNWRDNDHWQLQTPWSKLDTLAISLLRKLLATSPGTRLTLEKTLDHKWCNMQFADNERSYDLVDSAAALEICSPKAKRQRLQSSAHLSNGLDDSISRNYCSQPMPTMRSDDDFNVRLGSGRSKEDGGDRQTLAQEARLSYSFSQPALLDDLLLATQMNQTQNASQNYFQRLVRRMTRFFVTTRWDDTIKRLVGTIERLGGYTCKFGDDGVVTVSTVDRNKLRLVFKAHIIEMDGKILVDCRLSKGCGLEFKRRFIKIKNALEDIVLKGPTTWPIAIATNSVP

mouse (Mm) Chk2 = biological target: T3, mouse (Mm) Chk2 (Mus musculus, UniProt Q9Z265); conditions: phosphate donor, 300 μM ATP spiked with labelled compound; acceptor histone H1 / Cdc25 peptide; 10 mM Mg acetate, pH 7.6, 30 °C
T3 construct: gene Chek2
T3 sequence (Q9Z265 whole entry): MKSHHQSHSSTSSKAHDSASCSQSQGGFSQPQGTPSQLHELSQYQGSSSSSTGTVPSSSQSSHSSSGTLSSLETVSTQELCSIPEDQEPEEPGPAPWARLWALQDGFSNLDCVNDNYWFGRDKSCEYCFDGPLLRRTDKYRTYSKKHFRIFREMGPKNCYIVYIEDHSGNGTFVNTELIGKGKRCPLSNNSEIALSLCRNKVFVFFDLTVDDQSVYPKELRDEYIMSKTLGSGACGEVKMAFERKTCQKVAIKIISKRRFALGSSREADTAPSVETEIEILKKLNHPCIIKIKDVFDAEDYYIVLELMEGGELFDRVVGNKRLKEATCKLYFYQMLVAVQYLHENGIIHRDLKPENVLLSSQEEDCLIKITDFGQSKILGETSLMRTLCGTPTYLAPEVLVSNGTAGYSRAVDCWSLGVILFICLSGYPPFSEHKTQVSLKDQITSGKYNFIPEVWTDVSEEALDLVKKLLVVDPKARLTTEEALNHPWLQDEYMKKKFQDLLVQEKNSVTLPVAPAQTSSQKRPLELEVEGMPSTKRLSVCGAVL

human (Hs) Chk2 = biological target: T4, human (Hs) Chk2 (Homo sapiens, UniProt O96017); conditions: phosphate donor, 300 μM ATP spiked with labelled compound; acceptor histone H1 / Cdc25 peptide; 10 mM Mg acetate, pH 7.6, 30 °C
T4 construct: gene CHEK2
T4 sequence (O96017 whole entry): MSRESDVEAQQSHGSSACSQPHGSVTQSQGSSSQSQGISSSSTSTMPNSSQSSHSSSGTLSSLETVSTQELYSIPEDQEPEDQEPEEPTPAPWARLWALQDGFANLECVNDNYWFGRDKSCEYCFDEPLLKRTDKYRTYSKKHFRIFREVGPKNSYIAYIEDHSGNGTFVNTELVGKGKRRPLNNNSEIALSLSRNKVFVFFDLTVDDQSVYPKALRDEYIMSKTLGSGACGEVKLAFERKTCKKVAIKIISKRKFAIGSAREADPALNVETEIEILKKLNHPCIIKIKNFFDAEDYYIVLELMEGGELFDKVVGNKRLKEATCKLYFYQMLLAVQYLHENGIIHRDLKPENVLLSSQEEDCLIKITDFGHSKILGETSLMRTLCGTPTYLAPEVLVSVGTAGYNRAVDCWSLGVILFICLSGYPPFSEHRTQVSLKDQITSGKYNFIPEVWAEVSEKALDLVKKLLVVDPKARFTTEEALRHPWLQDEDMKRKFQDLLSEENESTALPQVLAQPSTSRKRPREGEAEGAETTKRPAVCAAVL

Nc1ncnc2c1ncn2[C@@H]1O[C@H](COP(=O)(O)OP(=O)(O)OP(=O)(O)O)[C@@H](O)[C@H]1O [ATP]
radiometric kinase assay, SDS-PAGE (human (Hs) Chk1): The Chk1 proteins from Drosophila and humans phosphorylated MCM2-7 with similar efficiency | radiometric kinase assay, SDS-PAGE (Drosophila (Dm) Chk1): Drosophila Chk1 phosphorylated, on average, close to one residue per MCM2-7 complex | radiometric kinase assay, SDS-PAGE (mouse (Mm) Chk2): human and mouse Chk2 were able to efficiently phosphorylate Cdc25 and histone H1 control substrates | radiometric kinase assay, SDS-PAGE (human (Hs) Chk2): human and mouse Chk2 were able to efficiently phosphorylate Cdc25 and histone H1 control substrates
